From PubChem BioAssay (NCI)
“And” between values parts separate entries of the source, which are not always exact repeats. Equal entries are not always repeated.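 Values below derive from 48-hour exposures of cells grown in 96-well plates, with endpoints linearly interpolated between the two concentrations bracketing the appropriate inhibition level. Here, GI50 denotes the concentration required for 50% inhibition of growth. TGI denotes the concentration required for complete inhibition of growth.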

What was measured:
Test in all cases: growth of human tumour cells (NCI), 48 h
HCT-15 colon = tested on: HCT-15 colon
HOP-92 NSCLC = tested on: HOP-92 NSCLC
KM12 colon = tested on: KM12 colon
NCI-H226 lung = tested on: NCI-H226 lung
NCI-H23 lung = tested on: NCI-H23 lung
OVCAR-8 ovarian = tested on: OVCAR-8 ovarian
RXF 393 renal = tested on: RXF 393 renal
SNB-19 CNS = tested on: SNB-19 CNS
SNB-75 CNS = tested on: SNB-75 CNS
UO-31 renal = tested on: UO-31 renal

Row | SMILES | GI50 (HCT-15 colon) [µM] | TGI (HCT-15 colon) | GI50 (HOP-92 NSCLC) [µM] | TGI (HOP-92 NSCLC) | GI50 (KM12 colon) [µM] | TGI (KM12 colon) [µM] | GI50 (NCI-H226 lung) [µM] | TGI (NCI-H226 lung) | GI50 (NCI-H23 lung) [µM] | TGI (NCI-H23 lung) [µM] | GI50 (OVCAR-8 ovarian) [µM] | TGI (OVCAR-8 ovarian) [µM] | GI50 (RXF 393 renal) [µM] | TGI (RXF 393 renal) | GI50 (SNB-19 CNS) [µM] | TGI (SNB-19 CNS) [µM] | GI50 (SNB-75 CNS) [µM] | TGI (SNB-75 CNS) [µM] | GI50 (UO-31 renal) [µM] | TGI (UO-31 renal) [µM]
1 | CCCC[P+](c1ccccc1)(c1ccccc1)c1ccccc1 | > 100 | > 100 µM | 0.675 | 6.58 µM | 0.944 | 66.3 | 5.34 | > 100 µM | 2.57 | 32.6 | 2.68 | > 100 | 18.5 | > 100 µM | 3.6 | > 100 | 4.95 | > 100 | 24.2 | > 100
2 | O=C1/C(=C/c2ccc([N+](=O)[O-])s2)Oc2ccccc21 | 0.246 | 0.688 µM | 0.557 | 2.29 µM | 0.352 | 1.28 | 2.24 | 5.75 µM | 1.31 | 3.19 | 0.297 | 1.68 | 1.1 | 2.85 µM | 1.26 | 2.79 | 1.03 | 5.98 | 0.323 | 2.13
3 | O=C(NCCCNC(=O)OCc1ccc2c(Br)cc(Br)c(O)c2n1)OCc1ccc2c(Br)cc(Br)c(O)c2n1 | > 100 | > 100 µM | > 100 | > 100 µM | > 100 | > 100 | > 100 | > 100 µM | > 100 | > 100 | > 100 | > 100 | > 100 | > 100 µM | > 100 | > 100 | > 100 | > 100 | > 100 | > 100
4 | O=C(Nc1cccc2cccnc12)c1ccc(N2C(=O)[C@@H]3[C@H](C2=O)[C@@H]2C=C[C@H]3C2)cc1 | 30.7 | > 100 µM | 15.5 | > 94.3 µM | 30.9 | > 100 | 19.8 | > 88.6 µM | 23.5 | > 100 | 26 | > 100 | 30.8 | > 100 µM | 41.6 | > 100 | > 44.2 | > 100 | 3.1 | > 100
5 | O=C(NCCN1CCOCC1)Nc1ccc(-c2cc3c(Nc4ccc(Oc5cccc(C(F)(F)F)c5)c(Cl)c4)ncnc3s2)cc1 | 0.95 | 1.92 µM | 1.66 | 7.43 µM | 1.02 | 2.12 | 3.18 | 17.1 µM | 1.51 | 5.76 | 2.4 | 9.88 | 0.653 | 2.55 µM | 2.41 | 8.52 | 0.642 | 1.9 | 0.801 | 1.75
6 | COc1cccc2c1cc([N+](=O)[O-])c1c(C(=O)O)cc3c(c12)OCO3 | 29.1 | > 100 µM and 38.6 µM | 23.3 | 88.3 µM and > 100 µM | 24.5 | > 87.2 | 20 | 48.4 µM and > 78.3 µM | 29.6 | > 100 |  | > 100 | 18 | 40.6 µM and > 56.9 µM | 33.4 | > 100 | 36 | > 100 | 26.2 | > 100
7 | OCC(O)COc1c(Cl)ccc(Cl)c1Cl (centres undefined) |  | > 100 µM |  | > 100 µM |  | > 100 |  | > 100 µM |  | > 100 |  | > 100 |  | > 100 µM |  | > 100 |  | > 100 |  | > 100
8 | O=C(CCc1ccccc1)On1nnc2ccccc2c1=O |  | > 100 µM |  | > 100 µM |  | > 100 |  | > 100 µM |  | > 100 |  | > 100 |  | > 100 µM |  | > 100 |  | > 100 |  | > 100
9 | COc1ccc(C2C(c3ccccc3)C(=O)N2c2cc(OC)c(OC)c(OC)c2)cc1I (centres undefined) | 0.339 | > 100 µM | 0.961 | > 100 µM | 0.343 | > 100 | 15.6 | > 100 µM | 0.623 | > 100 | 0.407 | > 100 | 0.324 | > 100 µM | 0.59 | > 100 | 6.01 | > 100 | 0.693 | > 100
10 | CCCCCCNC(=O)Oc1ccc(/C(=C(\C)c2ccccc2)c2ccc(OCCN3CCCCC3)cc2)cc1 | 1.53 | 3.52 µM | 1.51 | 5.04 µM | 2.61 | 7.63 | 5.91 | 21.4 µM | 3.06 | 11.6 | 2.14 | 5.94 | 1.52 | 3.32 µM | 4.69 | 18.2 | 2.01 | 10.1 | 1.38 | 2.86
11 | Cc1[nH]c(=O)nc(CC(O)(c2ccccc2)c2ccccc2)c1-c1ccccc1 |  | > 100 µM |  | > 100 µM |  | > 100 |  | > 100 µM |  | > 100 |  | > 100 |  | > 100 µM |  | > 100 |  | > 100 |  | > 100
12 | O=C(Nc1cccc(C(F)(F)F)c1)c1cccc(NC2=C(Cl)C(=O)N(Cc3ccccc3)C2=O)c1 | 5.1 | > 100 µM | 2.89 | 32.7 µM | 44.8 | > 100 | 4.51 | 65.5 µM | 25.4 | 64.8 | 15.7 | 66.1 | 2.39 | 9.29 µM | 36.8 | > 100 | 57.3 | > 100 | 11.7 | > 100
13 | C=C1C(=O)O[C@H]2[C@H]1[C@H](OC(=O)/C(C)=C\C)C[C@]1(CO1)[C@@H]1[C@H](OC(C)=O)C=C(C)[C@]21O |  | 33.5 µM |  | 30.3 µM |  | 41.4 |  | > 61.2 µM |  | 53.2 |  | > 100 |  | 25.6 µM |  | > 100 |  | > 100 |  | 29.4
14 | Fc1ccc(F)c(C2SCc3nc4ccccc4n32)c1 (centres undefined) |  | > 100 µM |  | > 100 µM |  | > 100 |  | > 100 µM |  | > 100 |  | > 100 |  | > 100 µM |  | > 100 |  | > 100 |  | > 100
15 | O=C(O)c1ccc(-c2ccc(C(=O)O)cc2I)c(I)c1 | > 100 | > 100 µM | > 100 | > 100 µM | > 100 | > 100 | > 100 | > 100 µM | > 100 | > 100 | > 100 | > 100 | > 100 | > 100 µM | > 100 | > 100 | > 100 | > 100 | > 100 | > 100
16 | CS(=O)(=O)OCCN(CCOS(C)(=O)=O)c1ccc(C=Nc2ccc3oc(=O)ccc3c2)cc1 |  | 37.9 µM |  | 47.1 µM |  | 30.3 |  | 21.9 µM |  | 17.5 |  | 49.9 |  | 1.89 µM |  | 80.7 |  | 26.1 |  | 2.96
17 | O=C(c1ccco1)c1c(C(F)(F)F)nc2cc(C(F)(F)F)ccc2[n+]1[O-] | > 100 | > 100 µM | 16.5 | 68.8 µM | > 100 | > 100 | > 100 | > 100 µM | 48.4 | > 100 | 31.8 | > 100 | 20.3 | 80 µM | 40.7 | > 100 | 16.6 | 42.7 | 66.9 | > 100
18 | CCOC(=O)N1C/C(=C/c2ccc(OC)cc2)C(=O)/C(=C/c2ccc(OC)cc2)C1 | 1.64 | 4.91 µM | 4.97 | > 56.3 µM | 0.946 | 2.5 | 3.29 | 18.9 µM | 3.26 | 20.2 | 3.49 | 14.6 | 1.56 | 3.09 µM | 3.87 | > 35 | 2.93 | 31.1 | 1.9 | 5.19
19 | COc1cc(/C=C2\CC3C4CC=C5C[C@@H](N6CCCC6)CC[C@]5(C)C4CC[C@]3(C)[C@H]2OC(C)=O)ccc1OCCN1CCCCC1 (some centres undefined) | 1.37 | 2.8 µM | 0.257 | 1.77 µM | 0.54 | 1.4 | 2.14 | 4.21 µM | 1.68 | 3.14 | 1.8 | 3.42 | 1.63 | 3.64 µM | 2.84 | 5.83 | 2.56 | 5.03 | 1.46 | 2.83
20 | Cc1c(C2Cc3ccccc3N2C(=O)/C=C\C(=O)O)c2ccccc2n1C (centres undefined) |  | > 100 µM |  | 36.3 µM |  | 35.6 |  | 57.6 µM |  | 62.9 |  | 43.6 |  | 33.1 µM |  | 37.2 |  | 74.2 |  | > 100
21 | CCn1c(-c2nonc2N)nc2c(C#CC(C)(C)O)nc(O[C@@H](CN)c3ccccc3)cc21 | 3.1 | 24.1 µM | 0.0727 | 1.12 µM | 0.0578 | 1.51 | 0.624 | 1.57 µM | 0.344 | 2.97 | 0.244 | 2.59 | 0.0338 | 0.394 µM | 0.236 | 3.24 | 0.122 | 4.06 | 3.52 | 7.37
22 | O=C(O)C(Br)C(Br)c1ccccc1[N+](=O)[O-] (centres undefined) |  | > 100 µM |  | > 100 µM |  | > 100 |  | > 100 µM |  | > 100 |  | > 100 |  | > 100 µM |  | > 100 |  | > 100 |  | 94.9
23 | COc1ccc(NC(=O)c2sc3nc(C)c(C(O)c4ccc(OC)cc4)cc3c2N)cc1 (centres undefined) | 0.414 | > 50 µM | 5.62 | > 50 µM | 0.76 | > 50 | 3.54 | > 50 µM | 2.06 | > 50 | 1.79 | > 50 | 0.411 | 2.99 µM | 1.84 | > 50 | 0.815 | 17.3 | 2.85 | > 50
24 | O=[N+]([O-])c1cc(Cl)cc2c1nc(NCCO)c1ccccc12 |  | > 100 µM |  | > 88 µM |  | 93.7 |  | > 80.2 µM |  | > 80.9 |  | > 100 |  | 19.3 µM |  | > 100 |  | > 81.7 |  | > 100
25 | Cc1ccc(C2SCc3nc4ccc(C(=O)c5ccccc5)cc4n32)cc1 (centres undefined) | 3.85 | > 42.9 µM | 11.7 | 38.8 µM | 6.49 | 35.2 | 15.3 | 62.3 µM | 14.4 | > 62 | 15.4 | 62.6 | 21.4 | 70.3 µM | 12.4 | > 71.9 | 23.3 | > 70 | 17 | 54.9
26 | Oc1ccc(/C=N/Nc2nc3ccccc3s2)c(O)c1 | 0.734 | 20.6 µM | 4.46 | > 100 µM | 2.18 | 15.8 | 3.56 | 65.9 µM | 3.03 | > 100 | 1.65 | > 100 | 3.36 | > 100 µM | 2.8 | > 100 | 1.51 | 9.96 | 0.341 | 4.23
27 | COc1ccc(/C(Cl)=C(\C=O)c2ccc(OC)c(OC)c2)cc1OC |  | > 100 µM |  | > 100 µM |  | > 100 |  | 99.9 µM |  | > 100 |  | > 100 |  | 99.7 µM |  | > 100 |  | 41 |  | > 100
